Test results as given in ChEMBL document CHEMBL4152334, “Synthesis, molecular docking and biological evaluation of novel phthaloyl derivatives of 3-amino-3-aryl propionic acids as inhibitors of Trypanosoma cruzi trans-sialidase” (2018).

What was measured:
Trypanosoma cruzi [1] = assay: Trypanocidal activity against trypomastigote stage of Trypanosoma cruzi INC-5 infected in NIH mouse blood assessed as parasite lysis after 24 hrs by optical microscopic method; assay type: functional; details: INC-5, Blood
Trypanosoma cruzi [2] = assay: Trypanocidal activity against trypomastigote stage of Trypanosoma cruzi NINOA infected in NIH mouse blood assessed as […] parasite lysis after 24 hrs by optical microscopic method; assay type: functional
Trypanosoma cruzi [3] = assay: Trypanocidal activity against trypomastigote stage of Trypanosoma cruzi NINOA infected in NIH mouse blood assessed as parasite lysis at 10 ug/ml after 24 hrs by optical microscopic method relative to control; assay type: functional
Trypanosoma cruzi [4] = assay: Trypanocidal activity against trypomastigote stage of Trypanosoma cruzi INC-5 infected in NIH mouse blood assessed as parasite lysis at 10 ug/ml after 24 hrs by optical microscopic method relative to control; assay type: functional
[5] = target: T1, Trans-sialidase (Trypanosoma cruzi) (UniProt Q26964); assay: Inhibition of Trypanosoma cruzi trans-sialidase at 1 mM assessed as reduction of 3'-sialyl-N-acetyllactosamine formation at 1 mM using N-acetyllactosamine as substrate and 3-sialyl-lactose as donor incubated for 15 mins by HPAEC-PAD relative to control
T1 sequence (whole entry): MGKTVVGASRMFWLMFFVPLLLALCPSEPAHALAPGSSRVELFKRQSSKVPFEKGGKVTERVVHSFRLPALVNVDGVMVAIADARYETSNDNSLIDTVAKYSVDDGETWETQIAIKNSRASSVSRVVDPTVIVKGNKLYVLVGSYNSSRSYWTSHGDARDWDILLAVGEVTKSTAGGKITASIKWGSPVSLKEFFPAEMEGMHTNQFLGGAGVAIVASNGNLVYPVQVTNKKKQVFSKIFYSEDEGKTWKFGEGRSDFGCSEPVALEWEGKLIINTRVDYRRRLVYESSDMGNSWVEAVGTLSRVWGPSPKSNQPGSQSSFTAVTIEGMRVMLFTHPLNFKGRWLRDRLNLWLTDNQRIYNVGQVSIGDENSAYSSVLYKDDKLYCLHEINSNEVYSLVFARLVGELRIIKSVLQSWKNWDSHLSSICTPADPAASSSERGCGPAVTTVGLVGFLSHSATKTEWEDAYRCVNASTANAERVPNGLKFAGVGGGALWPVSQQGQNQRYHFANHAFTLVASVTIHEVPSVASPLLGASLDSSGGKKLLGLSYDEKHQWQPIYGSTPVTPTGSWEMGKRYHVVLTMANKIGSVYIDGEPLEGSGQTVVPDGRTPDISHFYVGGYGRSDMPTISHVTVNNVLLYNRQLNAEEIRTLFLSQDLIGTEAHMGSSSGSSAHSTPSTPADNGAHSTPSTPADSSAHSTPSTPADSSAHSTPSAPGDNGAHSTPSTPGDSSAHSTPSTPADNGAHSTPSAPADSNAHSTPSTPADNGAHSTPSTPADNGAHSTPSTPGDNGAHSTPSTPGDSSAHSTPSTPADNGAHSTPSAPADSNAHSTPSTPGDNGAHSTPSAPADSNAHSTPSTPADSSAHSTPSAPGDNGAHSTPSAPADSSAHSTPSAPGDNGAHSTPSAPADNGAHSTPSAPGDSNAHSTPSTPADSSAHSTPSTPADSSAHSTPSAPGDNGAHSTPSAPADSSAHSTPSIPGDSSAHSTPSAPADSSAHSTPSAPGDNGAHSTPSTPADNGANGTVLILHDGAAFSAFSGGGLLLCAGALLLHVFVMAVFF

For NC(CC(=O)O)c1ccc2ccccc2c1 (stereo not given), which LC50 (Trypanosoma cruzi [1]) is on record?
Its LC50 is 103 µM.

And the LC50 (Trypanosoma cruzi [2])?
Its LC50 is 98.7 µM.

What about the Activity (Trypanosoma cruzi [3]) of the same compound?
The Activity was 60%.

What about the Activity (Trypanosoma cruzi [4]) of the same compound?
Its Activity is 60%.

And the inhibition [5]?
Its inhibition is 8.3%.

Which LC50 (Trypanosoma cruzi [1]) does the source give for NC(CC(=O)O)c1ccco1 (stereo not given) here?
The LC50 was 229 µM.

What about the LC50 (Trypanosoma cruzi [2]) of the same compound?
The LC50 was 99.1 µM.

What about the Activity (Trypanosoma cruzi [3]) of the same compound?
Its Activity is 53%.

And the Activity (Trypanosoma cruzi [4])?
The Activity was 50%.

What about the inhibition [5] of the same compound?
Its inhibition is 11.9%.

With O=C(O)CC(c1ccco1)N1C(=O)c2ccc(C(=O)O)cc2C1=O (stereo not given) as the compound, how does the LC50 (Trypanosoma cruzi [1]) read?
The LC50 was 102 µM.

What about the LC50 (Trypanosoma cruzi [2]) of the same compound?
Its LC50 is 77.6 µM.

And the Activity (Trypanosoma cruzi [3])?
Its Activity is 77%.

And the Activity (Trypanosoma cruzi [4])?
Its Activity is 55%.

And the inhibition [5]?
Its inhibition is 19.2%.

What does the source list for Cc1ccc2c(c1)C(=O)N(C(CC(=O)O)c1ccco1)C2=O (stereo not given)?
Activity (Trypanosoma cruzi [3]): 27%; Activity (Trypanosoma cruzi [4]): 40%; inhibition [5]: 40%

How did the LC50 (Trypanosoma cruzi [1]) turn out when O=C(O)CC(c1ccc(O)cc1)N1C(=O)c2ccccc2C1=O (stereo not given) was run?
Its LC50 is 91 µM.

What about the LC50 (Trypanosoma cruzi [2]) of the same compound?
Its LC50 is 71.4 µM.

And the Activity (Trypanosoma cruzi [3])?
Its Activity is 77%.

What about the Activity (Trypanosoma cruzi [4]) of the same compound?
The Activity was 68%.

What about the inhibition [5] of the same compound?
Its inhibition is 5.6%.

For O=C(O)CC(c1ccc2ccccc2c1)N1C(=O)c2ccc(C(=O)O)cc2C1=O (stereo not given), which Activity (Trypanosoma cruzi [3]) is on record?
The Activity was 42%.

And the Activity (Trypanosoma cruzi [4])?
Its Activity is 24%.

And the inhibition [5]?
The inhibition was 66.9%.

What does the source list for O=C(O)CC(c1ccc2ccccc2c1)N1C(=O)c2ccccc2C1=O (stereo not given)?
LC50 (Trypanosoma cruzi [1]): 117 µM; LC50 (Trypanosoma cruzi [2]): 97.3 µM; Activity (Trypanosoma cruzi [3]): 57%; Activity (Trypanosoma cruzi [4]): 62%; inhibition [5]: 65.8%

How did the LC50 (Trypanosoma cruzi [1]) turn out when Cc1ccc2c(c1)C(=O)N(C(CC(=O)O)c1ccc3ccccc3c1)C2=O (stereo not given) was run?
Its LC50 is 46.2 µM.

And the LC50 (Trypanosoma cruzi [2])?
The LC50 was 52.7 µM.

What about the Activity (Trypanosoma cruzi [3]) of the same compound?
The Activity was 63%.

What about the Activity (Trypanosoma cruzi [4]) of the same compound?
The Activity was 65%.

What about the inhibition [5] of the same compound?
The inhibition was 86.9%.

Cc1ccc2c(c1)C(=O)N(C(CC(=O)O)c1ccc(O)cc1)C2=O (stereo not given) was tested. Which Activity (Trypanosoma cruzi [3]) did it give?
The Activity was 38%.

And the Activity (Trypanosoma cruzi [4])?
The Activity was 15%.

What about the inhibition [5] of the same compound?
Its inhibition is 82.5%.

Which Activity (Trypanosoma cruzi [3]) does the source give for O=C(O)CC(c1ccc(O)cc1)N1C(=O)c2ccc(C(=O)O)cc2C1=O (stereo not given) here?
The Activity was 43%.

And the Activity (Trypanosoma cruzi [4])?
The Activity was 71%.

And the inhibition [5]?
Its inhibition is 53%.

For NC(CC(=O)O)c1ccc(O)cc1 (stereo not given), which LC50 (Trypanosoma cruzi [1]) is on record?
Its LC50 is 127 µM.

And the LC50 (Trypanosoma cruzi [2])?
The LC50 was 152 µM.

What about the Activity (Trypanosoma cruzi [3]) of the same compound?
The Activity was 50%.

What about the Activity (Trypanosoma cruzi [4]) of the same compound?
The Activity was 76%.

And the inhibition [5]?
The inhibition was 1.4%.

With O=C(O)CC(c1ccco1)N1C(=O)c2ccccc2C1=O (stereo not given) as the compound, how does the Activity (Trypanosoma cruzi [3]) read?
The Activity was 16%.

And the Activity (Trypanosoma cruzi [4])?
The Activity was 21%.

What about the inhibition [5] of the same compound?
Its inhibition is 76.5%.
